Earlier results on one compound are cited in patent US5854268A, “Azetidine, pyrrolidine and piperidine derivatives” (Merck Sharp & Dohme, Ltd., priority 1994, dated 1998).

For this series the following is noted: therapeutic doses.

Take `CNS(=O)(=O)Cc1ccc2[nH]cc(CCN(C)C)c2c1` [sumatriptan]: the “adverse events in humans” value was “certain adverse cardiovascular events”.
